These results are taken from patent publication EP1124847B1, “LHRH ANALOGUES FOR THE TREATMENT OF OSTEOPOROSIS” (Ferring B.V., priority 1998, dated 2004).

The nature of this experiment: Serum calcium in the ovariectomised rat (colorimetric assay, day 28). Conditions: ovariectomised rats, 80µg/kg daily for 28days. Type of experiment: in vivo, Sprague Dawley rats. On the procedure:
• (a) Female adult (8 weeks old, 200-215g) Sprague Dawley rats were bilaterally ovariectomised (OVX). Animals were kept for 4 weeks […] before commencing treatment. -Purina rat chow (1.00% calcium, 0.61% phosphorous) and water were provided ad libitum. Each study consisted of 6 weight-matched groups (n = 8/group). • (b) Treatment started 4 weeks post-OVX. After 4 weeks, a baseline control OVX group was sacrificed (Group A). The remaining groups were injected once a day with vehicle (Group B), 1µg/kg body weight (Group C), 10µg/kg body weight (Group D), 100µg/kg body weight (Group E) of GnRH-II, and 80µg/kg body weight (Group F) of hPTH(1-34). • (c) All rats were weighed every fourth day and dosages adjusted for 50g increase in mean group weight. Rats were given alternate subcutaneous injections ofcalcein (30mg/kg) or tetracyclin (30mg/kg) in 2% sodium bicarbonate-saline, respectively to label mineralization surfaces on days 10, 19 and 26, following treatment with drug. Bone mineral density was assessed by dual energy x-ray absorptometry-DEXA). On day 28 serum calcium levels were determined by colorimetric assay using a commercial kit. • (d) Success of OVX was confirmed at necropsy by failure to detect ovarian tissue and by observation of marked atrophy of the uterine horns. Both legs were disarticulated at the hip. […]

Regarding “PTH: Parathyroid hormone, hPTH(1-34), 80µg/kg comparison group (Group F) (SVSEIQLMHNLGKHLNSMERVEWLRKKLQDVHNF; Parathyroid hormone; UniProt P01270 32-65, looked up, fragment)”, the serum calcium entry is recorded as “pronounced hypercalcemia”.
